Test results reported in patent US20200247812A1 (Integral Biosciences Private Limited, priority 2018, published 2020).
Values belong to the molecule of their own block, whether it stands above or below them.

How the values were obtained:
ALK 5 = molecular target: T1, ALK 5 (Homo sapiens, UniProt P36897); assay: In vitro kinase assay (ALK5 IC50, LanthaScreen Terbium labeled TR-FRET); format: biochemical; conditions: TGF-β kinase 6 nM, ATP 10 μM, read-out: Enzyme Activity ALK 5 IC50
T1 sequence (P36897 34-503): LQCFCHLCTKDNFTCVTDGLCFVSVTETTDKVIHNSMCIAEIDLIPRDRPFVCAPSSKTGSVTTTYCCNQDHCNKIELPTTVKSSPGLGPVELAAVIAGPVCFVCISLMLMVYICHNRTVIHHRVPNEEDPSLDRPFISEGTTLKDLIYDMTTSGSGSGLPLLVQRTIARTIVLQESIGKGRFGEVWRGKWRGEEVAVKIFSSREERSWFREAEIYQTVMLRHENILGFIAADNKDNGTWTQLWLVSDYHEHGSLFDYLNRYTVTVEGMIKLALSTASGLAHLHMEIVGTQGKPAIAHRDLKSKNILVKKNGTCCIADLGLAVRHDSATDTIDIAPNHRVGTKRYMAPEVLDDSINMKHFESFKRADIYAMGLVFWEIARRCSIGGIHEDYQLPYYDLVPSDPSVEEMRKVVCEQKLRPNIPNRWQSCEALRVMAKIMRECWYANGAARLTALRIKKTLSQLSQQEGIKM
Procedure, shortened: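 LanthaScreen Tb TR-FRET: ALK5 (6 nM) preincubated 10 min with 3-fold diluted compounds, then 10 μM ATP and 200 nM fluorescent PolyGT substrate added for 1 h at room temperature. Stopped with EDTA/Tb antibody; 520/495 nm emission read. IC50 from four-parameter fit versus DMSO and no-enzyme controls.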

HCT116 = assay: Cell viability assay (resazurin), HCT116; format: cell-based; conditions: Homo sapiens, HCT-116, 72-144 hr
Description: (§1) Different cell lines such as pancreatic, (MIA PaCa-2; ATCC®CRL-1420™ & and Panc-1; CRL-1469™), liver carcinoma (HepG2; ATCC® HB-8065™), lung epithelial carcinoma (A549; ATCC® CCL-185™) and others were seeded in their respective medium (DMEM, Cat #10569044, MEM, Cat #41090036; RPMI, Cat #22400089; all with 10% FBS, Gibco, ThermoFisher) at a cell count of 3000 cells per 100 μl per well in a 96 well edge plate (167425; ThermoFisher). Cells were allowed to grow at 37° C. for 24 hr in 5% CO2 (culture conditions) in a Nuaire incubator (humidified). Serially diluted compounds (100 μl) were added to the culture plate 24 hr later and the cultures were further incubated in culture conditions for specified time depending on doubling time of specific cell line (ranging from 72-144 hr). Experiment was terminated at the completion of incubation time with the drug by replacing the medium with 100 μl of 1 mM of resazurin (R7017; Sigma) prepared in respective culture medium and the plates were further incubated in culture conditions for 4 hr. Fluorescence was then measured using a multimodal plate reader (Biotek Synergy Neo) at an excitation wavelength of 535 nm and emission wavelength of 590 nm to obtain relative fluorescence units. Data analysis was done by subtracting the background fluorescence (only medium blank) value from each reading and then normalizing with the vehicle control (DMSO treated cells) to obtain percent survival/proliferation. Percent survival at different doses was used to calculate IC50 by fitting the curve to the “four-parameter variable slope logistic model” using Prism Graph Pad.

HepG2 = assay: Cell viability assay (resazurin), HepG2; format: cell-based; conditions: Homo sapiens, 72-144 hr
Description: as §1

MDA_MB-231 = assay: Cell viability assay (resazurin), MDA_MB-231; format: cell-based; conditions: Homo sapiens, MDA-MB-231, 72-144 hr
Description: as §1

A427 = assay: Cell viability assay (resazurin), A427; format: cell-based; conditions: Homo sapiens, A-427, 72-144 hr
Description: as §1

MV-4-11 = assay: Cell viability assay (resazurin), MV-4-11; format: cell-based; conditions: Homo sapiens, MV4-11, 72-144 hr
Description: as §1

MCF7 = assay: Cell viability assay (resazurin), MCF7; format: cell-based; conditions: Homo sapiens, 72-144 hr
Description: as §1

THP1 = assay: Cell viability assay (resazurin), THP1; format: cell-based; conditions: Homo sapiens, THP-1, 72-144 hr
Description: as §1

human PBMC's = assay: Viability in CD3e/CD28 activated human PBMC's (resazurin); format: cell-based; conditions: 72 hr
Description: IC50 values of compounds for determining viability in CD3e/CD28 activated human PBMC's (hPBMC-34033, Cat # CC-2702; Lonza) cultured in LGM3 medium, Cat # CC #3211; Lonza). Human PBMC's (0.25×10^6 cells/well) were activated with Anti-human CD3e (0.5 μg/ml, coated overnight at 4° C.; Cat #16-0037-81, eBioscience) and then incubated with serial dilutions of compounds (3 fold, 8 point dose response starting at 30 μM) for 30 min at 37° C., 5% CO2 in an incubator (cell culture conditions) prior to treating them with Anti-human CD28 (0.25 μg/ml soluble; Cat #16-0289-81, eBiosciences). Human PBMC's were further incubated under cell culture conditions for 72 hr following which experiment was terminated by replacing the medium with 100 μl of 1 mM of resazurin (R7017; Sigma) prepared in culture medium and the plates were further incubated in culture conditions for 4 hr. Fluorescence was then measured using a multimodal plate reader (Biotek Synergy Neo) at an excitation wavelength of 535 nm and emission wavelength of 590 nm to obtain relative fluorescence units. Data analysis was done by subtracting the background fluorescence (only medium blank) value from each reading and then normalizing with the vehicle control (DMSO treated cells) to obtain percent survival/proliferation. Percent survival at different doses was used to calculate IC50 by fitting the curve to the “four-parameter variable slope logistic model” using Prism Graph Pad.

[1] = system: phosphorylation of Smad-2 in THP-1 cells; assay: Inhibition of phosphorylation of Smad-2 in THP-1 cells (Phospho-Smad2 ELISA); format: cell-based
A549 = assay: Cell viability assay (resazurin), A549; format: cell-based; conditions: Homo sapiens, 72-144 hr
Description: as §1

AsPC-1 = assay: Cell viability assay (resazurin), AsPC-1; format: cell-based; conditions: Homo sapiens, ASPC1, 72-144 hr
Description: as §1

Panc-10.05 = assay: Cell viability assay (resazurin), Panc-10.05; format: cell-based; conditions: Homo sapiens, Panc1005, 72-144 hr
Description: as §1

IC50 (ALK 5): ≤ 0.5 µM
IC50 (HCT116): > 30 µM
IC50 (HepG2): 15.7 µM
IC50 (MV-4-11): 16.3 µM
IC50 (MCF7): 18.7 µM
IC50 (THP1): 13 µM
Structure (SMILES): CC(=O)Nc1cc(Nc2cc(-c3cc(Cl)ccc3F)c(=O)[nH]c2C2CC2)ccn1 [Compound 1.69, N-(4-((5-(5-chloro-2-fluorophenyl)-2-cyclopropyl-6-oxo-1,6-dihydropyridin-3-yl)amino)pyridin-2-yl)acetamide]
IC50 (MDA_MB-231): 15.3 µM
IC50 (A427): > 30 µM

IC50 (ALK 5): ≤ 0.5 µM
Structure (SMILES): C[C@@H](CO)NC(=O)c1cnccc1Nc1cc(-c2cc(Cl)ccc2F)c(=O)[nH]c1N(C)C [Compound 1.10, (S)-4-((5-(5-chloro-2-fluorophenyl)-2-(dimethylamino)-6-hydroxypyridin-3-yl)amino)-N-(1-hydroxypropan-2-yl)nicotinamide]
IC50 (human PBMC's): 24.5 µM
% Inhibition of pSmad2 ([1]; 3 μg): 36.7%
% Inhibition of pSmad2 ([1]; 10 μg): 45.1%

IC50 (ALK 5): ≤ 0.5 µM
IC50 (HCT116): > 30 µM
IC50 (A549): > 30 µM
IC50 (AsPC-1): > 30 µM
IC50 (MCF7): > 10 µM
IC50 (Panc-10.05): > 30 µM
Structure (SMILES): CN(C)c1[nH]c(=O)c(-c2cc(Cl)ccc2F)cc1Nc1ccncc1C(N)=O [Compound 1.32, 4-((5-(5-chloro-2-fluorophenyl)-2-(dimethylamino)-6-hydroxypyridin-3-yl)amino)nicotinamide]
IC50 (MDA_MB-231): > 30 µM
IC50 (A427): > 30 µM
% Inhibition of pSmad2 ([1]; 3 μg): 51.3%
% Inhibition of pSmad2 ([1]; 10 μg): 50.5%

IC50 (ALK 5): ≤ 0.5 µM
IC50 (HCT116): 13.4 µM
IC50 (A549): 28.5 µM
IC50 (HepG2): 12.6 µM
IC50 (THP1): 6.09 µM
IC50 (Panc-10.05): 28.5 µM
Structure (SMILES): CC(=O)Nc1cc(Nc2cc(-c3cc(Cl)ccc3F)c(=O)[nH]c2N(C)C)ccn1 [Compound 1.40, N-(4-((5-(5-chloro-2-fluorophenyl)-2-(dimethylamino)-6-oxo-1,6-dihydropyridin-3-yl)amino)pyridin-2-yl)acetamide]
IC50 (MDA_MB-231): 12.6 µM
IC50 (A427): 15.2 µM

IC50 (ALK 5): ≤ 0.5 µM
IC50 (HCT116): > 30 µM
IC50 (HepG2): 18.2 µM
IC50 (MV-4-11): 29.2 µM
IC50 (MCF7): > 30 µM
IC50 (THP1): > 30 µM
Structure (SMILES): CCc1[nH]c(=O)c(-c2cc(Cl)ccc2F)cc1Nc1ccnc(NC(C)=O)c1 [Compound 1.70, N-(4-((5-(5-chloro-2-fluorophenyl)-2-ethyl-6-oxo-1,6-dihydropyridin-3-yl)amino)pyridin-2-yl)acetamide]
IC50 (MDA_MB-231): > 30 µM
IC50 (A427): > 30 µM

IC50 (ALK 5): 0.5 to 2 µM
IC50 (HCT116): > 30 µM
Structure (SMILES): COC(=O)c1cnccc1Nc1cc(-c2cc(Cl)ccc2F)c(=O)[nH]c1N(C)C [Compound 1.29, methyl 4-((5-(5-chloro-2-fluorophenyl)-2-(dimethylamino)-6-hydroxypyridin-3-yl)amino)nicotinate]

IC50 (ALK 5): ≤ 0.5 µM
Structure (SMILES): CC(C)c1[nH]c(=O)c(-c2cc(Cl)ccc2F)cc1Nc1ccncc1C(=O)NC[C@H](C)O [Compound 1.5, (S)-4-((5-(5-chloro-2-fluorophenyl)-2-isopropyl-6-oxo-1,6-dihydropyridin-3-yl)amino)-N-(2-hydroxypropyl)nicotinamide]
% Inhibition of pSmad2 ([1]; 3 μg): 47.3%
% Inhibition of pSmad2 ([1]; 10 μg): 53.3%

IC50 (ALK 5): > 5 µM
Structure (SMILES): CC(C)c1[nH]c(=O)c(-c2ccc(F)nc2)cc1Nc1ccnc2[nH]ccc12 [Compound 1.52, 5-((1H-pyrrolo[2,3-b]pyridin-4-yl)amino)-6′-fluoro-6-isopropyl-[3,3′-bipyridin]-2(1H)-one]

IC50 (ALK 5): 2 to 5 µM
Structure (SMILES): CC(C)c1[nH]c(=O)c(-c2cc(Cl)ccc2F)cc1Nc1ccnc(NC2CC2)c1 [Compound 1.55, 3-(5-chloro-2-fluorophenyl)-5-((2-(cyclopropylamino)pyridin-4-yl)amino)-6-isopropylpyridin-2(1H)-one]

IC50 (ALK 5): 2 to 5 µM
Structure (SMILES): CN(C)c1[nH]c(=O)c(-c2cc(Cl)ccc2F)cc1Nc1ccncc1C1=NCCN1 [Compound 1.35, 3-(5-chloro-2-fluorophenyl)-5-((3-(4,5-dihydro-1H-imidazol-2-yl)pyridin-4-yl)amino)-6-(dimethylamino)pyridin-2(1H)-one]

IC50 (ALK 5): ≤ 0.5 µM
Structure (SMILES): CCc1[nH]c(=O)c(-c2cc(Cl)ccc2F)cc1Nc1ccncc1C(=O)NC [Compound 1.72, 4-((5-(5-chloro-2-fluorophenyl)-2-ethyl-6-oxo-1,6-dihydropyridin-3-yl)amino)-N-methylnicotinamide]

IC50 (ALK 5): ≤ 0.5 µM
Structure (SMILES): CC(C)c1[nH]c(=O)c(-c2cc(Cl)ccc2F)cc1Nc1c(F)cnc2[nH]ccc12 [Compound 1.57, 3-(5-chloro-2-fluorophenyl)-5-((5-fluoro-1H-pyrrolo[2,3-b]pyridin-4-yl)amino)-6-isopropylpyridin-2(1H)-one]

IC50 (ALK 5): 2 to 5 µM
Structure (SMILES): CC(O)CNC(=O)c1cnccc1Nc1c[nH]c(=O)c(-c2cc(Cl)ccc2F)c1 (stereo not shown) [Compound 1.1, 4-((5-(5-chloro-2-fluorophenyl)-6-oxo-1,6-dihydropyridin-3-yl)amino)-N-(2-hydroxypropyl)nicotinamide]

IC50 (ALK 5): > 5 µM
Structure (SMILES): CC(=O)Nc1cc(Nc2cc(-c3ccccc3CO)c(=O)[nH]c2C(C)C)ccn1 [Compound 1.53, N-(4-((5-(2-(hydroxymethyl)phenyl)-2-isopropyl-6-oxo-1,6-dihydropyridin-3-yl)amino)pyridin-2-yl)acetamide]

IC50 (ALK 5): 0.5 to 2 µM
Structure (SMILES): CC(=O)Nc1cc(Nc2cc(-c3cccc(C#N)c3)c(=O)[nH]c2C(C)C)ccn1 [Compound 1.54, N-(4-((5-(3-cyanophenyl)-2-isopropyl-6-oxo-1,6-dihydropyridin-3-yl)amino)pyridin-2-yl)acetamide]

IC50 (ALK 5): 0.5 to 2 µM
Structure (SMILES): CC(C)c1[nH]c(=O)c(-c2ccc(F)c(Cl)c2)cc1Nc1ncnc2c1CC(=O)N2 [Compound 1.85, 4-((5-(3-chloro-4-fluorophenyl)-2-isopropyl-6-oxo-1,6-dihydropyridin-3-yl)amino)-5,7-dihydro-6H-pyrrolo[2,3-d]pyrimidin-6-one]
